This note sets out measurements from patent US20250170098A1, “MOLECULAR JACKHAMMER FOR MECHANICAL DESTRUCTION OF CELLULAR STRUCTURE” (William Marsh Rice University, priority 2022, published 2025).

The structures appear in SMILES notation. A value given as a limit tells only on which side of the number the result lay.

The test system of one experiment is A375 cells. Description: Clonogenic assay. In kind it is cell-based, human. Particulars: Homo sapiens, A-375, read-out: lethal concentration to kill the cell population by 50% (VDA IC50). How it is done:
The clonogenic assay was conducted to confirm that cancer cells treated by plasmon-driven MJH are indeed death upon NIR-light activation (FIG. 18). Three molecules were analyzed: the most VDA active BL-204, medium active BL-141-2 and low active Cy7-amine. […] This was accomplished by incubating the MJH molecules with the A375 cells for 50 min and immediately activate the plasmon-driven MJH using 730 nm NIR-light at 80 mW/cm^2 for 10 min. This is considered a short contact time between the MJH and the A375 cells.
Clonogenic assay. A375 cells were seeded in 35 mm cell culture dishes at predetermined densities to allow for an approximately equal number of resultant colonies. The next day, cells were treated with Cy7.5-amine at variable concentration and with or without 730 nm light at 80 mWcm^−2 for 10 min. The cells were incubated with Cy7.5-amine for 50 min before the illumination, the media was replaced with fresh media after the illumination and cells were cultured for 6 days to allow for colony formation. Cells were then washed once with PBS and fixed-stained in a 0.5% (w/v) crystal violet in methanol/water solution (1:1) during 10 min. The excess of crystal violet was washed off with water, the plates were dried at room temperature and then the colonies were counted using ImageJ software version 1.52a, and the survival fraction was determined. All treatments were in triplicate.

Experiment [1] has as its system human melanoma A375 cells. Description: Cell permeabilization to DAPI, flow cytometry analysis. The note with it: for permeabilization of the cells to DAPI: 730 nm light at 80 mW/cm^2 for 10 min; for IC50: Homo sapiens, A-375, 10 min, 730 nm LED light at 80 mW/cm^2 for 10 min, DAPI positive cells, read-out: VDA IC50 (effective concentration needed to permeabilize cells by 50%). It counts as cell-based. On the procedure: The activity of plasmon-driven MJHs to open cell membranes by VDA upon NIR light-activation was evaluated in human melanoma A375 cells. When the cell membranes were open by VDA, DAPI enters immediately into the cells and stain the nucleus, and flow cytometry analysis was used to quantify the percentage of DAPI positive cells at variable concentrations of MJH. The flow cytometry analysis is conducted immediately after the cells were treated with 730 nm LED light at 80 mW/cm^2 for 10 min. Typically, it took ˜30 s to start cell counting and observe that DAPI already had entered into the cell membrane-compromised cells but not in the controls without VDA action. This is indicative of a rapid necrotic cell death and cell membrane permeabilization to DAPI by VDA action. The effective concentration needed to permeabilize cells by 50% (VDA IC50) was estimated for each molecule.
The flow cytometry data was analyzed using FlowJo software version 10.5.3. Then, a wide polygonal gate was drawn as shown in FIG. 33A since we were interested in detecting any cell death after treatment, we were not only interested in measuring healthy cell populations. Sometimes, we observed that the death cell population upon treatment shifted outside the gate if a narrow gate was used. Then, the singlets were selected and the DAPI fluorescence intensity was plotted versus the SSC-A and the gate for DAPI positive cells was drawn as shown in FIG. 33C and the analysis was applied to all samples in the group. In FIG. 33D, a DAPI positive population is observed in the same analysis group. This analysis was applied to calculate the percentage of DAPI positive cells.
Cell Permeabilization and flow cytometry analysis. A375 cells were cultured as described before. One day before the treatment, cells were inoculated at 5 million cells per dish (10 cm polystyrene tissue culture dish). The cells were harvested using 0.05% trypsin-EDTA (Gibco, 25-300-054), then the cells were counted and were adjusted to a cell density of 2×10^5 cells/mL in DMEM media with L-glutamine, 4.5 g/L glucose, and sodium pyruvate (Corning Inc. 10013CV) and supplemented with 10% FBS (Corning, 35010CV), 2×MEM vitamin solution (Gibco, 11120052), 1×MEM non-essential amino acid solution (Gibco, 11140050) and penicillin/streptomycin. 1 mL of this cell suspension containing 2×10^5 cells was used in each treatment. In a 1.5 mL Eppendorf tube, […] containing 2 mM Cy7.5-amine (or other cyanine molecule or other concentration) in DMSO (Fisher, 99.7%) was placed in the bottom of the tube, then 1 mL of the cell suspension was added into the tube to get final concentration of 2 μM of Cy7.5-amine containing 0.1% DMSO and 2×10^5 cells. The mixture was then incubated at 37° C. and 5% CO2 for 30 min. Then, 1 mM DAPI was added into the cell suspension. Then, the cells suspension was transferred to a […] tissue culture dish and immediately the cells were treated under the light beam of NIR light of 730 nm at 80 mW/cm^2 (or adjusted powers down to 20 mW/cm^2) for 10 min (or adjusted illumination times down to 30 s) using LED light source (PRIZMATIX, UHP-F-730, Israel) which covered the entire dish. While the cells were treated, the dish was placed on top of an aluminum block painted black, so that the excess NR light and that was not reflected back into the cell suspension while the aluminum block actED as a heat-sink, maintaining a constant temperature in the dish during the irradiation. The instrument for flow cytometry analysis (SONY, MA900 Multi-Application Cell Sorter) was already set up and calibrated by the time the light treatment was finished. Therefore, as soon as the 10-min light treatment was completed, the cell suspension was rapidly transferred from the 35 mm dish to a flow cytometry tube and the cells were analyzed for DAPI permeabilization and Cy7.5-amine binding. It took ˜30 s to load the sample and to start the analysis. […]
(In general: A flow cytometer gives signals particle by particle.)

As for `CN(C)CCCCCC[N+]1=C(/C=C/C2=CC(=C/C=C3/N(C)c4ccc5ccccc5c4C3(C)C)/CCC2)C(C)(C)c2c1ccc1ccccc21` [BL-141-2, 3-(6-(dimethylamino)hexyl)-1,1-dimethyl-2-((E)-2-((E)-3-((E)-2-(1,1,3-trimethyl-1,3-dihydro-2H-benzo[e]indol-2-ylidene)ethylidene)cyclohex-1-en-1-yl)vinyl)-1H-benzo[e]indol-3-ium], in the experiment with A375 cells, the IC50 was determined as 65 nM.

With `CC1(C)C(/C=C/C=C/C=C/C=C2\N(CCCCS(=O)(=O)O)c3ccc4ccccc4c3C2(C)C)=[N+](CCCCS(=O)(=O)[O-])c2ccc3ccccc3c21` [ICG, indocynine green], the “permeabilization of the cells to DAPI” value in experiment [1] (32 μM) is given as 2%; in experiment [1] (400 μM), 14%. In addition, the IC50 in experiment [1] is over 8000 nM.

For `CN(C)CC[N+]1=C(/C=C/C2=CC(=C/C=C3/N(C)c4ccc5ccccc5c4C3(C)C)/CCC2)C(C)(C)c2c1ccc1ccccc21` [BL-204, 3-(2-(dimethylamino)ethyl)-1,1-dimethyl-2-((E)-2-((E)-3-((E)-2-(1,1,3-trimethyl-1,3-dihydro-2H-benzo[e]indol-2-ylidene)ethylidene)cyclohex-1-en-1-yl)vinyl)-1H-benzo[e]indol-3-ium], the IC50 in experiment [1] was 120 nM; in the experiment on A375 cells it was 45 nM.

On to `CN1/C(=C\C=C2C=C(/C=C/C3=[N+](CCCCCC(=O)NCCCCCCN)c4ccccc4C3(C)C)CCC\2)C(C)(C)c2ccccc21` [Cy7-amine], for which the “permeabilization to DAPI staining, percentage of cells” value in experiment [1] (1 μM, 730 nm LED at 80 mW/cm^2 for 10 min) is reported as 0.8%. Besides, the “effect of 680 nm excitation on opening cell membranes” value in experiment [1] (680 nm LED, 80 mWcm^−2 for 10 min) is listed as “improves the MJH effect for opening cell membranes”. Besides, in the experiment with A375 cells, the IC50 was determined as 175 nM.

With `CN1/C(=C/C=C2C=C(/C=C/c3ccc4ccccc4[n+]3C)CCC/2)C=Cc2ccccc21` [BL-206], the IC50 in experiment [1] was over 8000 nM.
